{
  "source": "patent US7153822B2",
  "about": "“Compositions and methods for modulating connexin hemichannels” (Wyeth, priority 2002, dated 2006)",
  "key": {"[1]": {"system": "infarcted mice", "assay": "bone marrow cell transplantation after myocardial infarction (design of Orlic et al)", "assay_type": "in vivo", "settings": "repeated administration during the proliferation process", "excerpt": "Myocardial infarction leads to loss of tissue and impairment of cardiac performance. The remaining myocytes are unable to reconstitute the necrotic tissue, and the post-infarcted heart deteriorates with time. Injury to a target organ is sensed by distant stem cells, which migrate to the site of damage and undergo alternate stem cell differentiation; these events promote structural and functional repair. This high degree of stem cell plasticity prompted Orlic et al (Nature 410, 701–705 (2001)) to test whether dead myocardium could be restored by transplanting bone marrow cells in infarcted mice. They sorted lineage-negative (Lin−) bone marrow cells from transgenic mice expressing enhanced green fluorescent protein by fluorescence-activated cell sorting on the basis of c-kit expression. Shortly after coronary ligation, Lin− c-kitPOS cells were injected in the contracting wall bordering the infarct. […] The developing tissue comprised proliferating myocytes and vascular structures. Their studies indicate that locally delivered bone marrow cells can generate de novo myocardium, ameliorating the outcome of coronary artery disease. […]"}, "[2]": {"system": "cultured primary cardiomyocytes", "assay": "stimulus-activation interval (conduction velocity) during glucose removal, patch clamp", "assay_type": "cell-based, rat", "settings": "10 nM, superfusion 20 min after 15 min without glucose", "procedure": "1. Cell culture: In short the hearts from 20 neonate rats (age 1–2 days) are excised aseptically. The ventricles are isolated and cut into 4–6 pieces, which are digested in several steps in a Hanks buffered saline with trypsin and DNAse. The cells are then centrifuged and resuspended in MEM with 5% FCS. To eliminate non-muscle cells the suspension is preplated in petri dishes for 30 minutes at 37° C. The cells in suspension are then seeded onto collagen coated coverslips. Seeding density will be adjusted to give confluent cultures.\n2. Electrophysiology: The cover slips with confluent cardiomyocytes are mounted in an open chamber on the stage of an inverted microscope and superfused with Dulbeccos phosphate buffered saline (PBS) by gravity driven flow at 1 ml/min, 37° C. The solution (PBS) contain (in mM): Na+ 152, K+ 4.2, Cl− 141.5, PO43− 9.5, Ca2+ 0.9, Mg2+ 0.5, pH 7.4. Patch clamp pipettes are pulled from 1.5 mm glass capillaries (GC150F-15, Harvard Apparatus) on a Sutter Flaming-Brown P-87 microelectrode puller and fire polished to a resistance of 4–6 MW. […]\nThe cells were perfused with control solution with 0.1 g/l BSA until a stable baseline in the stimulus-activation interval (SAI) was established. […] Date are expressed as percent change relative to baseline prior to removal of glucose from the media."}, "[3]": {"assay": "in vivo", "settings": "rat, ip", "quoted_text": "Compound 1 was delivered by an osmotic minipump (Alzet model 2ML4) that was inserted into the intraperitoneal (i.p.) cavity immediately prior to induction of the myocardial infarction. The pump was filled with vehicle (isotonic saline) or Compound 1 and primed at 37° C. for 24 hours prior to the operation. In order to ensure that the therapeutic plasma concentration was obtained already at the time of infarction, a loading dose of Compound 1 was given s.c. prior to ligation of the LAD.\nAfter administration of the s.c. loading dose of Compound 1 and after i.p. insertion of the osmotic minipump, a left thoracotomy was performed, and the left anterior decending artery was ligated using a 6-0 silk suture. The thorax is closed in layers, and a negative pressure was induced in the pleural cavity to unfold the lungs. Sham-operated animals were subjected to the same procedure without ligation of the LAD. Postoperatively, the animal were allowed to recover in a heated cabinet at 30° C. with 50% oxygen until the next morning. To prevent dehydration during the recovery period, the rat was given 5 ml 5% glucose s.c. immediately after completion of surgery and another 5 ml 5% glucose at 4 p.m. To relieve postoperative pain, the rat was treated with buprenorphine (20 μg/100 g s.c. b.i.d.) and meloxicam (0.1 mg/100 g s.c. once daily) for three days after the myocardial infarction. […] Plasma concentrations of Compound 1 were measured by mass spectrometry following solid phase extraction."}, "[4]": {"system": "connexin 43 (Cx43)", "assay": "immunoprecipitation and immunoblot of phosphorylated connexin 43", "assay_type": "cell-based", "procedure": "H9c2 cells were seeded in 24-multi well dishes in a density of 7,900 cells/cm^2 (˜15,000 cells/well) and grown for 3 days in MEM suplemented with 10% foetal calf serum (FCS) and 1000 units penicillin/1000 μg streptomycin (pen/strep) in an atmosphere of 5% CO2 and 100% humidity at 37° C.\nThe labelled cells were incubated in Triton X-100 lysis buffer (˜5*10^7 cells/ml) for 1 hr at 4° C. The lysate is centrifuged 30 min at 20,000*g for 30 min. The supernatant was precleared by adding 10 ul Sepharose per 200 μl supernatant. The precleared supernatant were then added 0.5–1 μg phospho-tyrosine or phospho-serine antibodies (Sigma) and incubated for 1.5 hr at 4° C. in an orbital shaker. The antibody-complex was then captured by incubation with 50 μl of a 1:1 slurry of protein G Sepharose for 1.5 hr. Finally the complex were extensively washed with 0.1% (w/v) Triton X-100, 50 mM Tris, pH 7.4, 300 mM NaCl and 5 mM EDTA.\nThe complexes were loaded onto a 12% SDS gel and blotted onto a PVDF membrane. The membrane is blocked with 0.1% Tween 20, 50 mM Tris, pH 7.4, 300 mM NaCl, 5% dry milk (TBST) for minimum 2 h. The membrane was subsequently incubated with connexin 43 specific antibodies (Zymed) for 1.5 h at RT and developed with ECL+ (Amersham)."}},
  "note": "“Also recorded” adds a separate entry of the source. Square brackets hold non-standard residues; d marks the D form. Peptide text beside a SMILES is read from it. dHyp = O=C(O)[C@H]1C[C@H](O)CN1",
  "data": [
    {"smiles": "CC(=O)N[C@H](Cc1ccc(O)cc1)C(=O)N1CCC[C@@H]1C(=O)N1C[C@@H](O)C[C@@H]1C(=O)NCC(=O)N[C@H](C)C(=O)NCC(N)=O", "note": "[Compound 1, Ac-D-Tyr-D-Pro-D-4Hyp-Gly-D-Ala-Gly-NH2] (Ac-[dY][dP][dHyp]G[dA]G-NH2)", "values": [
      {"measurement": "connexin 43 expression", "setting": "[1]", "value": "increase in connexin 43 expression"},
      {"measurement": "stimulus-activation interval", "setting": "[2]", "value": "decreased the stimulus-activation interval"},
      {"measurement": "level at time molar at 504 h", "setting": "[3]; 11 pmol/kg/min", "value": "1.7 ± 0.4", "unit": "nM"},
      {"measurement": "level at time molar at 504 h", "setting": "[3]; 110 pmol/kg/min", "value": "5.7 ± 0.4", "unit": "nM"},
      {"measurement": "level at time molar at 504 h", "setting": "[3]; 1100 pmol/kg/min", "value": "93.7 ± 12.3", "unit": "nM"},
      {"measurement": "connexin 43 tyrosine phosphorylation", "setting": "[4]; cardiomyocytes exposed for 4 h with 0, 1, 10, 50 and 100 nM", "value": "increase connexin 43 tyrosine phosphorylation"},
      {"measurement": "tyrosine phosphorylation of connexin 43", "setting": "[4]; cultured H9c2 cardiomyocytes", "value": "phosphorylation of Cx43 tyrosine; also recorded: mediates tyrosine phosphorylation of connexin 43"},
      {"measurement": "Ser-phosphorylation of connexin 43", "setting": "[4]; in some experiments", "value": "decrease Ser-phosphorylation"}
    ]}
  ]
}
